Broadly, the IC50 is the midpoint of a concentration-inhibition curve.

Counter-ions that a name gives are not always drawn. Like-named read-outs stand apart in the source and are kept apart here.

Series [1] has as its target CYP1A2 (Homo sapiens, UniProt P05177).
The subject of series [2] is BSEP. Details: method as in PMID 23877105. The conditions noted are these: SCHs; cited from earlier work.
In series [3] the test system is icHep. The conditions noted are these: for intracellular amount on DFP treatment: not told.
Series [4] has as its system BSEP.
The target in series [5] is P-gp (Homo sapiens, UniProt P08183). The conditions noted are these: two donors (HUM181001B), 1 μCi/ml, 120 min.
Chain of P-gp (P08183 whole entry): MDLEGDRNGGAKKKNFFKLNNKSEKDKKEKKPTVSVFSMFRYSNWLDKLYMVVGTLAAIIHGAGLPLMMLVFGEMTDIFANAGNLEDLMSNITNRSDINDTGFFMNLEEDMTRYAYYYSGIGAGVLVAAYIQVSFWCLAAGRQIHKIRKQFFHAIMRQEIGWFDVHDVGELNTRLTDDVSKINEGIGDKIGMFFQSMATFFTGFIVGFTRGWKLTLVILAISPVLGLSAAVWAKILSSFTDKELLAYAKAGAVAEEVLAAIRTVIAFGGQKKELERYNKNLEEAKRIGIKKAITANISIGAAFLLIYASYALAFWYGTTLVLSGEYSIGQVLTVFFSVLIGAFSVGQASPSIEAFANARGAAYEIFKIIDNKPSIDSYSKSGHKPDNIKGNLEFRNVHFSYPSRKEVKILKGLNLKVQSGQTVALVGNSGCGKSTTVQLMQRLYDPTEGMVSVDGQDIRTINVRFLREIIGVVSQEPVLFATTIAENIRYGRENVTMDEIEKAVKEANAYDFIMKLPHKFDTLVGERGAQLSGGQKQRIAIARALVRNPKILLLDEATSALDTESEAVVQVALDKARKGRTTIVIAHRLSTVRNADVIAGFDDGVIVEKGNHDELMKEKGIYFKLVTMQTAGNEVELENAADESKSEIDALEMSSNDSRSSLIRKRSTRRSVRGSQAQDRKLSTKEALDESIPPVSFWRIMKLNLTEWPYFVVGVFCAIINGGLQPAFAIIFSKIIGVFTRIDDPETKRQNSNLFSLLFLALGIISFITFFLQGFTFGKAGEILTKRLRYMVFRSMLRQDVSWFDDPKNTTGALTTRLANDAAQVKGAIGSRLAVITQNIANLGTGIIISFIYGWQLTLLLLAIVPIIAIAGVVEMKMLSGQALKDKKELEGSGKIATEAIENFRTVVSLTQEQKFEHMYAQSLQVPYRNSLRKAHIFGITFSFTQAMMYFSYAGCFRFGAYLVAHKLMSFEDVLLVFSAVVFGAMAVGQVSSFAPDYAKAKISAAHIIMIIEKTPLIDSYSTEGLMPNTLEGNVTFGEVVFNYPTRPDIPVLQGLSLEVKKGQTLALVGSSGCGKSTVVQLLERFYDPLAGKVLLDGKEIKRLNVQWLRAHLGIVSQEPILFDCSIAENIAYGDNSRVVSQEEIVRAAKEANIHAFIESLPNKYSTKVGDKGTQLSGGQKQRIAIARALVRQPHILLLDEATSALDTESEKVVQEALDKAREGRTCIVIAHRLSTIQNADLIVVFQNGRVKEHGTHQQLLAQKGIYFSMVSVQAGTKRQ
Experimental: The cells were incubated in a 37°C water bath, and 200 μl of TB was collected from the lower chamber (bile side) at 30, 60, 90, and 120 min. An equal amount of TB was immediately added after every sampling point. […] The apparent permeability coefficient Papp (cm/s) was estimated using Eq. (2). Here, Q, A, and C0 indicate the recovered amount of the compound on the bile side, the surface area of the insert membrane (0.3 cm^2), and the initial concentration of the substrate, respectively.2 Papp=dQ/dt/(A×C0)
The nature of series [6]: Reported human in vivo biliary excretion clearance and intrinsic clearance estimated from it (Eq. 4).
Series [7] deals with sandwich-cultured PXB-cells. The conditions noted are these: human, 1 μM.
Series [8] concerns the target T1, OATP1B1 (Homo sapiens, UniProt Q9Y6L6).
T1 sequence (Q9Y6L6 1-691): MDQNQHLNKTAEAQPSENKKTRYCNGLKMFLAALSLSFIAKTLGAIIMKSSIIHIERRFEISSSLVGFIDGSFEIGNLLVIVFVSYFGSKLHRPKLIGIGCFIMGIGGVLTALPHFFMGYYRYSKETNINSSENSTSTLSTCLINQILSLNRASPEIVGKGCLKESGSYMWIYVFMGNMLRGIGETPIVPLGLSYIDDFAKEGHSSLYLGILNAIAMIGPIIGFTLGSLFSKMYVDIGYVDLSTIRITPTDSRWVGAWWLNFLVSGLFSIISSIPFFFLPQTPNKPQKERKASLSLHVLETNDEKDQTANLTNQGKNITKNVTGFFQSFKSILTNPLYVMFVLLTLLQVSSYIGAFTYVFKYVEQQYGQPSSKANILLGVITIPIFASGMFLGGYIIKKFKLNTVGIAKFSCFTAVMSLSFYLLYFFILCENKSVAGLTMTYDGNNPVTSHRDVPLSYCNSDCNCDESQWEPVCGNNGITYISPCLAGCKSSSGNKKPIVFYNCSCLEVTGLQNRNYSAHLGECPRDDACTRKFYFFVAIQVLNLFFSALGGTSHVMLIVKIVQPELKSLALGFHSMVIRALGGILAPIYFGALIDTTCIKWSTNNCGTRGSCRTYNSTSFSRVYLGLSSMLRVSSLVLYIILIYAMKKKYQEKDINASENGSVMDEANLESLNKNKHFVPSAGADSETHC

Series [9] deals with T2, MRP2 (Homo sapiens, UniProt Q92887). The conditions noted are these: not told.
T2 sequence (Q92887 whole entry): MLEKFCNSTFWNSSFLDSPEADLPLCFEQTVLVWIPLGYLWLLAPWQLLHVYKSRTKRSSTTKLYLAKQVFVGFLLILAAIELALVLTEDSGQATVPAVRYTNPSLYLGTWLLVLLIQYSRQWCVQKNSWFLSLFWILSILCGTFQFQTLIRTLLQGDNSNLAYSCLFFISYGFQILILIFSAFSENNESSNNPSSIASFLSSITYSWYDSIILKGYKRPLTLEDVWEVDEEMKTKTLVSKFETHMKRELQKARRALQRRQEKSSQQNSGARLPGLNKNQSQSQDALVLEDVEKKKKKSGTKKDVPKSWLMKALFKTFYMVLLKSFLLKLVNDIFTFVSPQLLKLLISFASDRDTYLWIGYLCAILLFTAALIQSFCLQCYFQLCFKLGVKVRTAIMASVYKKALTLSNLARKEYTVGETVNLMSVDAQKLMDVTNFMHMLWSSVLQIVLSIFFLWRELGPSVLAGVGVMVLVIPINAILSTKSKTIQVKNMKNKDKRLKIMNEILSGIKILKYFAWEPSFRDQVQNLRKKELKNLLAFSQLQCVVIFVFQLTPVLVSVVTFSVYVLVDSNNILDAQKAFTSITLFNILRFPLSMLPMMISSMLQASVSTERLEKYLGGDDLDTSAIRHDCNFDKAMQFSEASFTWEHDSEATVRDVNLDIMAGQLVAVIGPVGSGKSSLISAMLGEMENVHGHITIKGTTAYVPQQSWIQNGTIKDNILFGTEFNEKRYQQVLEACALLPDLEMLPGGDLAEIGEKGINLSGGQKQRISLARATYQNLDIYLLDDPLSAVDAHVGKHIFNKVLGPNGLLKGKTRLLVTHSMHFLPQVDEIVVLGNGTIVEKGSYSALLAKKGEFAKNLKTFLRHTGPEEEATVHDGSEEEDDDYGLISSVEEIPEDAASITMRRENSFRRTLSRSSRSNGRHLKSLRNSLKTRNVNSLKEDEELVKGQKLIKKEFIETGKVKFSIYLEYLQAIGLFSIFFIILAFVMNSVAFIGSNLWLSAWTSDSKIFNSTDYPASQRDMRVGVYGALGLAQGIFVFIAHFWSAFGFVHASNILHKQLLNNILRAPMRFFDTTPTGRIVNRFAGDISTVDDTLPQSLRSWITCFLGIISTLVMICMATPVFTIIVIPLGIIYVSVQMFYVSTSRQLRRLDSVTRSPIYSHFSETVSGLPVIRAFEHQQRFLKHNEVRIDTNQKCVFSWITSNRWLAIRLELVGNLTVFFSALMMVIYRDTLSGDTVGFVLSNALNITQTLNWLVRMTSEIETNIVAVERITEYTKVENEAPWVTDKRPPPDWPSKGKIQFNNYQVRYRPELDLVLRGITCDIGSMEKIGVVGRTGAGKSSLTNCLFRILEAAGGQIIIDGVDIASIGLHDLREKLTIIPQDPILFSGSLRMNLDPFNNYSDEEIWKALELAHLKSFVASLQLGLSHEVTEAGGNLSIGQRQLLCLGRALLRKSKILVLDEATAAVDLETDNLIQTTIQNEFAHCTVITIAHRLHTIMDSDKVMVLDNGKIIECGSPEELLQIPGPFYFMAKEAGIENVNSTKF
For series [10] the following is noted: cited from earlier work.
The nature of series [11]: icHep permeation assay (sinusoidal to bile side) to estimate drug biliary excretion clearance. The conditions noted are these: human.
The conditions of series [12]: human, cited from earlier work.
For series [13] the following is noted: cited from earlier work; for Rb: blood/plasma concentration ratio.
Series [14] in a line: in vitro. The conditions noted are these: human, Biliary excretion clearance, observed, CLbile, int.
Series [15] addresses T2, MRP2. Nature of the series: MRP2-mediated biliary transport of CDF (CDFDA permeation assay). The conditions noted are these: benzbromarone 100 μM, icHep.
In series [16] the test system is BSEP. The conditions noted are these: cited from earlier work.
[17] abbreviates: estimated from observed CLbile with fp, Rb, Qh 1400 ml/min.
[18] abbreviates: estimated from observed in vivo CLbile with fp, Rb and Qh 1400 ml/min.
Where [19] appears, read: unbound fraction of the plasma protein.
Setting [20] is: unbound fraction, reported value.
[21] abbreviates: Biliary excretion clearance, in vitro, observed, CLbile, int, icHep (HUM181001B), CLbile,app of icHep minus control cells.
Setting [22] is: reported in vivo biliary excretion clearance.

Chain of CYP1A2 (P05177 whole entry): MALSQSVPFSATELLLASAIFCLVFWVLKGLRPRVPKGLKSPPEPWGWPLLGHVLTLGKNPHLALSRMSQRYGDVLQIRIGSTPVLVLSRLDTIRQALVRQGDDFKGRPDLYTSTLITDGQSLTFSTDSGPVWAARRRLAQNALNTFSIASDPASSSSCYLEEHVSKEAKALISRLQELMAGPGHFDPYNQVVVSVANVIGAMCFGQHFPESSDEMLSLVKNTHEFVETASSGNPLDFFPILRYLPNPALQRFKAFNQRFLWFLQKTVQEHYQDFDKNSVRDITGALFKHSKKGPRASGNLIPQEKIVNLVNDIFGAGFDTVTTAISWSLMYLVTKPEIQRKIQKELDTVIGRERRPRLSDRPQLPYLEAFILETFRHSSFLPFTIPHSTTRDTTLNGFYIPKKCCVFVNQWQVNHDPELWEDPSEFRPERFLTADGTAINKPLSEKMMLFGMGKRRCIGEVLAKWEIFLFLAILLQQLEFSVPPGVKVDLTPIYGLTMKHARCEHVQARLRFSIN

Regarding `CC(=O)Nc1ccc(O)cc1` [Acetaminophen], in series [1], the “Enzyme activity, Mean” value is recorded as 0.950 pmol/min/106 cells.
Turning to `CCOc1nc2cccc(C(=O)O)c2n1Cc1ccc(-c2ccccc2-c2nnn[nH]2)cc1` [CAN, candesartan], in [2], the BSEP inhibition result is “not”. For the same compound, in series [3], the “intracellular amount on DFP treatment” value was “decreased”.
As to `CCOc1nc2cccc(C(=O)OC(C)OC(=O)OC3CCCCC3)c2n1Cc1ccc(-c2ccccc2-c2nnn[nH]2)cc1` (centres unmarked) [CIL, candesartan cilexetil], the BSEP inhibition result in series [2] was “inhibited”. Further, the “effect on biliary excretion clearance of taurocholate” value in [4] is “decreased”. For the same compound, in series [4] (CIL (10 μM) alone, taurocholate 1 μM, 120 min), the “effect on biliary excretion clearance of BSEP substrate taurocholate” value is recorded as “did not affect”. Moreover, in [3], the “effect on intracellular accumulation of taurocholate” value is listed as “increased” and the “intracellular amount on DFP treatment” value is given as “increased”.
With `C[C@H]1O[C@@H](O[C@H]2[C@@H](O)C[C@H](O[C@H]3[C@@H](O)C[C@H](O[C@H]4CC[C@@]5(C)[C@H](CC[C@@H]6[C@@H]5C[C@@H](O)[C@]5(C)[C@@H](C7=CC(=O)OC7)CC[C@]65O)C4)O[C@@H]3C)O[C@@H]2C)C[C@H](O)[C@@H]1O` [Digoxin, digoxin], the “permeability to the bile side in icHep compared to the control” value in [5] is “significantly increased”. In addition, the “Observed in vivo CLbile, int” value in [6] (setting [17]) and in series [6] (setting [18]) was 154 mL/min in each case. In addition, the “BEI (%) Mean” value was found to be 21.9% in series [7] (2 min), 28.3% in series [7] (5 min), 44.9% in series [7] (10 min) and 37.1% in [7] (20 min). The “Predicted in vivo CLbile, int, Mean” value is 703 mL/min in series [7] (2 min), 410 mL/min in series [7] (5 min), 439 mL/min in series [7] (10 min) and 152 mL/min in series [7] (20 min).
With `C[C@]12CC[C@@H]3c4ccc(O)cc4CC[C@H]3[C@@H]1CC[C@@H]2O[C@@H]1O[C@H](C(=O)O)[C@@H](O)[C@H](O)[C@H]1O` [E217βG], the “difference in OATP1B1 substrate uptake clearance between two donors” value in [8] is listed as 2.85 fold. Also, the “permeability to the bile side in icHep compared to the control” value in series [9] is “significantly increased”.
Regarding `CN(Cc1cnc2nc(N)nc(N)c2n1)c1ccc(C(=O)N[C@@H](CCC(=O)O)C(=O)O)cc1` [Methotrexate, methotrexate], in series [10] (reported value), the “fp, unbound fraction of the plasma protein” value (“fp, unbound fraction” below) was 0.46[40]. Moreover, the fp in [10] (setting [19]) and in [10] (setting [20]) was 0.46 each time. In addition, the “Observed in vivo CLbile, int” value in [6] (setting [17]) and in [6] (setting [18]) was 90.0 mL/min each time. In addition, the “Predicted in vivo CLbile, int, Mean” value in series [7] (2 min) is 700 mL/min; in [7] (5 min) it was 179 mL/min; in series [7] (10 min), 126 mL/min; in [7] (20 min), 172 mL/min. Besides, the “BEI (%) Mean” value in [7] (5 min) is 14.8%; in series [7] (10 min), 18.9%. Further, the hepatocyte CLint at 1 μM in series [11] is 1.11 ± 0.217 µL/min/1e6 cells; in [11] (setting [21]) it was 0.73 ± 0.268 µL/min/1e6 cells. Further, the “Observed in vivo CLbile” value in series [12] (setting [22]) and in series [12] (reported value) was 39.9 mL/min each time. Further, the Rb in series [13] (reported value) and in series [13] was 0.79 each time.
Turning to `CCOc1ccc2ccccc2c1C(=O)N[C@@H]1C(=O)N2[C@@H]1SC(C)(C)[C@@H]2C(=O)O` [Nafcillin, nafcillin], the hepatocyte CLint at 1 μM is 2.22 ± 1.01 µL/min/1e6 cells in [14] and 1.07 ± 0.14 µL/min/1e6 cells in [11] (setting [21]). The “fp, unbound fraction” value in series [10] (reported value) was 0.123[43]. For the same compound, the fp in series [10] (setting [19]) and in [10] (setting [20]) was 0.123 each time. For the same compound, the “Observed in vivo CLbile, int” value in [6] (setting [17]) and in series [6] (setting [18]) was 1213 mL/min throughout. Moreover, the “BEI (%) Mean” value is 57.4% in series [7] (2 min), 42.7% in [7] (5 min), 40.6% in [7] (10 min) and 70.9% in series [7] (20 min). Besides, the “Predicted in vivo CLbile, int, Mean” value is 3401 mL/min in series [7] (2 min), 1026 mL/min in [7] (5 min), 340 mL/min in series [7] (10 min) and 608 mL/min in series [7] (20 min). Moreover, the “Observed in vivo CLbile” value in series [12] (setting [22]) and in [12] (reported value) was 125 mL/min in each case. The Rb in series [13] (reported value) and in series [13] was 0.55 in each case. Further, the “Rb, blood/plasma concentration ratio” value in [13] (reported value) is 0.55[43].
For the compound `CC[C@]1(O)C[C@H]2CN(CCc3c([nH]c4ccccc34)[C@@](C(=O)OC)(c3cc4c(cc3OC)N(C=O)[C@H]3[C@@](O)(C(=O)OC)[C@H](OC(C)=O)[C@]5(CC)C=CCN6CC[C@]43[C@@H]65)C2)C1` [Vincristine, vincristine], in [10] (reported value), the “fp, unbound fraction” value was 0.51[47]. The fp in [10] (setting [19]) and in series [10] (setting [20]) was 0.51 in each case. The “Observed in vivo CLbile, int” value in series [6] (setting [17]) and in series [6] (setting [18]) was 25.5 mL/min throughout. Further, the “BEI (%) Mean” value in series [7] (2 min) is listed as 11.7%; in series [7] (5 min), 16.5%; in series [7] (10 min) it was 26.3%; in series [7] (20 min), 40.4%. Also, the “Predicted in vivo CLbile, int, Mean” value in series [7] (2 min) is 329 mL/min; in series [7] (5 min), 199 mL/min; in series [7] (10 min) it was 190 mL/min; in series [7] (20 min), 168 mL/min. Besides, the hepatocyte CLint at 1 μM in series [11] is 0.173 ± 0.052 µL/min/1e6 cells; in [11] (setting [21]), 0.128 ± 0.0438 µL/min/1e6 cells. The “Observed in vivo CLbile” value in series [12] (setting [22]) and in [12] (reported value) was 12.9 mL/min in each case. In addition, the Rb in series [13] (reported value) and in series [13] was 1.2 each time.
As for `CCc1oc2ccccc2c1C(=O)c1cc(Br)c(O)c(Br)c1` [benzbromarone], in series [15], the “effect of MRP2 inhibitor on the increased appearance of CDF on the bile side” value is reported as “reduced this increase to the same level as the control group”.
Regarding `Cc1c(C)c2c(c(C)c1OS(=O)(=O)O)CCC(C)(COc1ccc(CC3SC(=O)NC3=O)cc1)O2` (centres unmarked) [troglitazone sulfate], the IC50 in series [16] is 4.2 µM.
For the compound `Cc1c(C)c2c(c(C)c1O)CCC(C)(COc1ccc(CC3SC(=O)NC3=O)cc1)O2` (centres unmarked) [troglitazone], the IC50 in [16] is 2.3 µM.
